Molecules are shown by their SMILES. Some results are limits rather than exact numbers.

From EP4803519A1, “NOVEL PRMT5 INHIBITOR AND USE THEREOF” (Shanghai Apeiron Therapeutics Company Limited, priority 2023, dated 2025) come the findings set out here.

For one assay, the system named is HCT-116 wild-type cells. The assay can be described thus: Inhibitory activity on proliferation of HCT-116 wild-type cells (Cell-Titer Glo). It counts as cell-based. The settings on record: Homo sapiens, 144 h, incubated 6 d, 0-10,000 nM. As for the experimental part:
Materials and cells: HCT-116 wild-type cells were purchased from Kyinno Biotechnology (China); RPMI-1640 medium, and fetal bovine serum were purchased from Thermo Fisher (United States); 384-well plates were purchased from PerkinElmer (United States); Cell-Titer Glo kit was purchased from Promega (United States).
Cell culture: HCT-116 wild-type cells were cultured in RPMI-1640 medium containing 10% fetal bovine serum at 37°C and 5% carbon dioxide. Only cells in the logarithmic growth phase could be used for the test.
Test of cell proliferation activity: Cell-Titer Glo kit was used to test the proliferation inhibitory activity of the compound on HCT-116 wild-type cells. The cell concentration was adjusted, rendering that cells were inoculated into a 384-well plate at 40 µL per well and incubated overnight at 37°C and 5% carbon dioxide. 80 nL of the compound was added to each well to reach a final concentration of 0-10,000 nM (starting concentration 10,000 nM, 2.5-fold dilution, 10 points), and the cell plate with 0.2% DMSO content was incubated at 37°C and 5% carbon dioxide for 6 d. 40 µL of Cell-Titer Glo reagent was added to test cell viability.

Assay [1] deals with HCT-116 MTAP(-/-)deleted cells. The assay can be described thus: Inhibitory activity on proliferation of HCT-116 MTAP(-/-)deleted cells (Cell-Titer Glo). In kind it is cell-based. The settings on record: Homo sapiens, 144 h, incubated 6 d, 0-1,000 nM. As for the experimental part:
Materials and cells: HCT-116 MTAP(-/-)deleted cells were purchased from Kyinno Biotechnology (China); RPMI-1640 medium, and fetal bovine serum were purchased from Thermo Fisher (United States); 384-well plates were purchased from PerkinElmer (United States); Cell-Titer Glo kit was purchased from Promega (United States).
Cell culture: HCT116 MTAP(-/-)deleted cells were cultured with RPMI 1640 medium containing 10% fetal bovine serum at 37°C in 5% carbon dioxide. Only cells in the logarithmic growth phase could be used for the test.
Test of inhibitory activity on cell proliferation: The Cell-Titer Glo kit was used to test the proliferation inhibitory activity of the compounds on HCT-116 MTAP(-/-)deleted cells. The cell concentration was adjusted, rendering that cells were inoculated into a 384-well plate at 40 µL per well and incubated overnight at 37°C and 5% carbon dioxide. 80 nL of the compound was added into each well to reach a final concentration of 0-1,000 nM (starting concentration 1,000 nM, 2.5-fold dilution, 10 points), and the cell plate with 0.2% DMSO content was incubated at 37°C and 5% carbon dioxide for 6 d. 40 µL of Cell-Titer Glo reagent was added to test cell viability.

The IC50 is the midpoint of a concentration-inhibition curve. A higher IC50 goes with lower potency. For `CN(C(=O)c1ccc2nc(N)c3ccccc3c2c1)C1COC(C)(C)c2cc(C(F)(F)F)ccc21` (stereo not drawn) [Example 20, 6-Amino-N-(1,1-dimethyl-7-(trifluoromethyl)isochroman-4-yl)-N-methylphenanthridine-2-carboxamide], the IC50 with HCT-116 wild-type cells was 5870 nM; in assay [1] it was 738 nM.
For `CN(C(=O)c1cc2c(cc1C(F)(F)F)nc(N)c1cnn(C)c12)[C@@H]1COC2(CCC2)c2cc(C(F)(F)F)ccc21` [Example 77], the IC50 with HCT-116 wild-type cells was determined as 1030 nM; in assay [1] it was 9.8 nM.
As for `CN(C(=O)c1ccc2nc(N)c3cnn(C)c3c2c1)[C@@H]1COC(C)(C)c2nc(N3CCOCC3)ccc21` [Example 54], the figures for the IC50 (in the assay with HCT-116 wild-type cells; in assay [1]) were 1810 nM and 5.8 nM, respectively.
In the same order, the values of `CN(C(=O)c1ccc2nc(N)c3cnn(C)c3c2c1)C1COC2(CCC2)c2nc(N3CCOCC3)ccc21` (stereo not drawn) [Example 53, 4-amino-N,1-dimethyl-N-(2'-morpholino-5',6'-dihydrospiro[cyclobutane-1,8'-pyrano[3,4-b]pyridin]-5'-yl)-1H-pyrazolo[4,3-c]quinoxaline-8-carboxamide] are > 10000 nM and 312 nM.
The corresponding values for `CN(C(=O)c1ccc2nc(N)c3cnn(C)c3c2c1)C1COC(C)(C)c2cc(-c3cnc4cnccn34)ccc21` (stereo not drawn) [Example 48] are 435 nM and 7.9 nM.
The corresponding values for `CN(C(=O)c1ccc2nc(N)c3c(c2c1)OCCO3)C1COC(C)(C)c2cc(C(F)(F)F)ccc21` (stereo not drawn) [Example 2, 5-Amino-N-(1,1-dimethyl-7-(trifluoromethyl)isochroman-4-yl)-N-methyl-2,3-dihydro-[1,4]dioxa[2,3-c]quinoline-9-carboxamide] are > 10000 nM and > 3000 nM.
As to `CN(C(=O)c1ccc2nc(N)c3cnn(C)c3c2c1)C1COC(C)(C)c2cc(C(F)(F)F)ccc21` (stereo not drawn) [Example 1, 4-amino-N-(1,1-dimethyl-7-(trifluoromethyl)isochroman-4-yl)-N,1-dimethyl-1H-pyrazolo [4,3-c] quinoline-8-carboxamide], the IC50 with HCT-116 wild-type cells is 1200 nM; in assay [1], 5.2 nM.
In the same order, the values of `CN(C(=O)c1ccc2nc(N)c3c(c2c1)CCCC3)C1COC(C)(C)c2cc(C(F)(F)F)ccc21` (stereo not drawn) [Example 19, 6-Amino-N-(1,1-dimethyl-7-(trifluoromethyl)isochroman-4-yl)-N-methyl-7,8,9,10-tetrahydrophenanthridine-2-carboxamide] are 7210 nM and 318 nM.
Consider `CN(C(=O)c1ccc2nc(N)c3ccsc3c2c1)C1COC(C)(C)c2cc(C(F)(F)F)ccc21` (stereo not drawn) [Example 3, 4-Amino-N-(1,1-dimethyl-7-(trifluoromethyl)isochroman-4-yl)-N-methylthieno[3,2-c]quinoline-8-carboxamide], for which the figures for the IC50 (with HCT-116 wild-type cells; in assay [1]) were 7540 nM and 435 nM, respectively.
In the same order, the values of `CN(C(=O)c1cc2c(cn1)nc(N)c1cnn(C)c12)C1COC2(CCC2)c2cc(C(F)(F)F)ccc21` (stereo not drawn) [Example 31] are 285 nM and 6.2 nM.
Turning to `CN(C(=O)c1ccc2nc(N)c3cnn(C)c3c2c1)C1COC(C)(C)c2cc(N3CCC(F)(F)C3)ccc21` (stereo not drawn) [Example 74, 4-Amino-N-(7-(3,3-difluoropyrrolidin-1-yl)-1,1-dimethylisochroman-4-yl)-N,1-dimethyl-1H-pyrazolo[4,3-c]quinoxaline-8-carboxamide], the figures for the IC50 (in the assay on HCT-116 wild-type cells; in assay [1]) were 2110 nM and 10.5 nM, respectively.
The corresponding values for `CN(C(=O)c1ccc2nc(N)c3cnn(C)c3c2c1)[C@@H]1COC(C)(C)c2cc(N3CC4COCC4C3)ccc21` (stereo partly drawn) [Example 56, 4-Amino-N-((4S)-1,1-dimethyl-7-(tetrahydro-1H-furo[3,4-c]pyrrol-5(3H)-yl)isochroman-4-yl)-N,1-dimethyl-1H-pyrazolo[4,3-c]quinoxaline-8-carboxamide] are 1330 nM and 4.4 nM.
In the same order, the values of `CN(C(=O)c1ccc2nc(N)c3cnn(C)c3c2c1)[C@@H]1COC(C)(C)c2cc(N3CC(F)(F)C3)ccc21` [Example 76, (S)-4-amino-N-(7-(3,3-difluoroazetidin-1-yl)-1,1-dimethylisochroman-4-yl)-N,1-dimethyl-1H-pyrazolo[4,3-c]quinoxaline-8-carboxamide] are 2520 nM and 6.1 nM.
The corresponding values for `CN(C(=O)c1ccc2nc(N)c3cnn(C)c3c2c1)[C@@H]1COC(C)(C)c2cc(N3CCOCC3)ncc21` [Example 55] are > 10000 nM and 20.2 nM.
For the compound `CN(C(=O)c1ccc2nc(N)c3cnn(C)c3c2c1)[C@@H]1COC(C)(C)c2cc(N3CCC4(CC3)COC4)ccc21` [Example 75, (S)-4-amino-N-(1,1-dimethyl-7-(2-oxa-7-azaspiro[3.5]nonan-7-yl)isochroman-4-yl)-N,1-dimethyl-1H-pyrazolo[4,3-c]quinoxaline-8-carboxamide], the IC50 in the assay with HCT-116 wild-type cells is 2610 nM; in assay [1], 8.2 nM.
Consider `CN(C(=O)c1ccc2nc(N)c3cnn(C)c3c2c1)[C@@H]1COC(C)(C)c2cc(C3=CCOCC3)ccc21` [Example 57, (S)-4-amino-N-(7-(3,6-dihydro-2H-pyran-4-yl)-1,1-dimethylisochroman-4-yl)-N,1-dimethyl-1H-pyrazolo[4,3-c]quinoxaline-8-carboxamide], for which the IC50 with HCT-116 wild-type cells came to 880 nM; in assay [1], 5.2 nM.
In the case of `CN(C(=O)c1ccc2nc(N)c3c(c2c1)CCC3)C1COC(C)(C)c2cc(C(F)(F)F)ccc21` (stereo not drawn) [Example 11, 4-Amino-N-(1,1-dimethyl-7-(trifluoromethyl)isochroman-4-yl)-N-methyl-2,3-dihydro-1H-cyclopenta[c]quinoline-8-carboxamide], the values for the IC50 (with HCT-116 wild-type cells; in assay [1]) were 3120 nM and 147 nM, respectively.
For `Cn1ncc2c(N)nc3cnc(C(=O)N(C4CC4)C4COC5(CCC5)c5cc(C(F)(F)F)ccc54)cc3c21` (stereo not drawn) [Example 87, 4-Amino-N-cyclopropyl-1-methyl-N-(7'-(trifluoromethyl)spiro[cyclobutane-1,1'-isochroman]-4'-yl)-1H-pyrazolo[4,3-c][1,7]naphthyridine-8-carboxamide], the IC50 amounted to 763 nM with HCT-116 wild-type cells and 11.2 nM in assay [1].
